In publication PMC5506005, “A novel protein kinase inhibitor IMB-YH-8 with anti-tuberculosis activity” (Scientific Reports, 2017):
Values after ≈ are worked out from the molar mass of the structure shown. Where two headings read alike, the source gives them in different places.

Test system: clinical isolates of M. tuberculosis
Test: microbe, parasite or virus in culture
Format: cell-based
Details: Mycobacterium tuberculosis

SMILES: COC(=O)/C=C/C(=O)c1ccc(OC)cc1 [IMB-YH-8]
- MIC (clinical isolate 3303, resistant to INH, STR): 0.5 µg/mL (≈ 2.27 µM)
- MIC (clinical isolate 4201, resistant to RIF): 0.25 µg/mL (≈ 1.14 µM)
- MIC (clinical isolate 5112, resistant to INH, RIF, STR, EMB): 0.25 µg/mL (≈ 1.14 µM)
- MIC (clinical isolate 5116, resistant to INH, RIF): 0.25 µg/mL (≈ 1.14 µM)
- MIC (clinical isolate 5120, resistant to INH, STR, EMB): 0.5 µg/mL (≈ 2.27 µM)
- MIC (clinical isolate 6133, resistant to INH, RIF): 0.25 µg/mL (≈ 1.14 µM)
- MIC (clinical isolate 7153, resistant to INH, RIF): 1 µg/mL (≈ 4.54 µM)
- MIC (clinical isolate 11277, resistant to INH, RIF, STR): 0.5 µg/mL (≈ 2.27 µM)
- MIC (clinical isolate 12179, resistant to INH, RIF): 0.25 µg/mL (≈ 1.14 µM)
- MIC (clinical isolate 12251, resistant to INH, RIF): 0.5 µg/mL (≈ 2.27 µM)
- MIC (clinical isolate 16559, resistant to STR, OFX): 0.5 µg/mL (≈ 2.27 µM)
- MIC (clinical isolate 20161, resistant to INH, RIF): 0.5 µg/mL (≈ 2.27 µM)
- MIC (clinical isolate 23120, resistant to INH, RIF, STR): 0.25 µg/mL (≈ 1.14 µM)
- MIC (clinical isolate 23443, resistant to RIF): 0.5 µg/mL (≈ 2.27 µM)
- MIC (read-out: MICs for drug-resistant isolates): 0.25 to 1 µg/mL (≈ 1.14 to 4.54 µM)
